Laboratory results reported in patent US20240238428A1 (priority 2021, published 2024).
Read-outs that look alike come from different tables or passages of the source.

Tests used:
HIV = settings: peptide without selenium, cited from earlier work
virus gp 120 and CD4 = virus gp 120 and CD4 (Human immunodeficiency virus type 1 group M subtype B, UniProt P04578); settings: peptide without selenium; only observed at this relatively high concentration; cited from earlier work
normal human lung cells = settings: up to 10 μM
normal prostate cells = type: cell-based
PC-3 cells = type: cell-based
DU-145 cells = type: cell-based

Se-TYICEVEDQKEE
inactivation of HIV (HIV-1; 10 μg/ml): over 95% | concentration for 50% inactivation of HIV (HIV-1; 0.25 mM reduced glutathione): 1 microgram per ml | inhibition of cell infection (HIV-1; 0.006 micrograms per ml): over 50% | inhibition of cell infection (HIV-1; 0.5 micrograms per ml): over 99% | inactivation of HIV virus (HIV-1; 10 micrograms per ml, 0.25 mM reduced glutathione, within 1 hour): 95% | concentration for 50% (half maximal) inactivation of HIV (HIV-1; 1 hour pre-incubation, 0.25 mM reduced glutathione): 1 µg/mL | concentration of peptide that binds and inactivates HIV in one hour (HIV-1; one hour): 0.5 µg/mL | IC50 (HIV-1; read-out: concentration for half maximal inactivation of virus, peptide in the medium during infection, after 100-fold dilution in culture medium): 5.9 nM | IC50 (HIV-1; read-out: concentration for half maximal inactivation of virus, peptide during the 1 hour pre-incubation): 590 nM | inactivation of HIV-1 (ability of infected cells to produce virus) (HIV-1; seleno-peptide 0.1 ug/ml, one hour with glutathione 250 uM): 95% | increase in effectiveness at preventing infection by coupling selenium to the 12-mer peptide (HIV-1; versus peptide without selenium): 50 fold

TYICEVEDQKEE [gp120-binding 12-mer peptide]
effect of peptide without selenium on HIV (HIV-1; even at 100 μg/ml, the highest concentration tested): no significant effect | effect of control peptide solution on HIV-1 inactivation (HIV-1; peptide without selenium): no effect | peptide concentration with 50% infection blocking activity (HIV; corresponds to 32 μM): about 50 μg/ml | IC50 (HIV; read-out: peptide concentration with 50% infection blocking activity): 32000 nM | concentration at which an effect on the gp 120-CD4 interaction was observed (virus gp 120 and CD4): 457 micrograms per ml

selenium adduct of dihydrotesterone [SeDHT]
sensitivity of cells (normal human lung cells): Only the prostate cells are sensitive | sensitivity of cells (normal prostate cells): sensitive | concentration that kills the cells (PC-3 cells): less than 10 micromolar | concentration that kills the cells (DU-145 cells): less than 10 micromolar | sensitivity of cells (colorectal cancer cells): Only the prostate cells are sensitive
